Results on 21 compounds are retold here after US20070004660A1, “Synergistic Modulation of Flt3 Kinase Using Alkylquinolines and Alkylquinazolines” (priority 2005, published 2007).

pIC50: −log10 of the molar value.

The target in this test is T1, isolated kinase domain of the human FLT3 receptor (a.a. 571-993) (Homo sapiens, UniProt P36888).
T1 construct: human FLT3 receptor (a.a. 571-993)
T1 sequence (P36888 571-993): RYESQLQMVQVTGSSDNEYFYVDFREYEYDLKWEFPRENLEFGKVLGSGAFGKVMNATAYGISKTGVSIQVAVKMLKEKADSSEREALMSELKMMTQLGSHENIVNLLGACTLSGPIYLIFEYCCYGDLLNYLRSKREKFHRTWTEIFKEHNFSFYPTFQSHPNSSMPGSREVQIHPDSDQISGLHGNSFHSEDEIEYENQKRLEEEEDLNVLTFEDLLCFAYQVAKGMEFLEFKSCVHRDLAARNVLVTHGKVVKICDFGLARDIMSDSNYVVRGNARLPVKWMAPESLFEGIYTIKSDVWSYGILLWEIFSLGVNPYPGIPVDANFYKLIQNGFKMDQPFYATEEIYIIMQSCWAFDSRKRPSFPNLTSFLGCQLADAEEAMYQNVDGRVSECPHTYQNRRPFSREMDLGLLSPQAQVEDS
The experiment in a line: FLT3 fluorescence polarization kinase assay. Format: biochemical. To be noted: 150 uM ATP; uncertainty ±10%.

For the compound `CNC(=O)C1CCN(c2ccc3c(C4CCN(C(=O)Nc5ccc(N6CCCC6)cc5)CC4)ncnc3c2)CC1` [Example 155, 4-[7-(4-Carboxylic acid methylamide-piperidin-1-yl)-quinazolin-4-yl]-piperidine-1-carboxylic acid (4-pyrrolidin-1-yl-phenyl)-amide], the pIC50 is 8.10.
Regarding `CN1CCN(CCOc2ccc3c(C4CCN(C(=O)Nc5ccc(N6CCOCC6)cc5)CC4)ncnc3c2)CC1` [Example 156, 4-{7-[2-(4-Methyl-piperazin-1-yl)-ethoxy]-quinazolin-4-yl}-piperidine-1-carboxylic acid (4-morpholin-4-yl-phenyl)-amide], the pIC50 was 8.22.
Next, `CN1CCN(CCOc2ccc3c(C4CCN(C(=O)Nc5ccc(N6CCCC6)cc5)CC4)ncnc3c2)CC1` [Example 157, 4-{7-[2-(4-Methyl-piperazin-1-yl)-ethoxy]-quinazolin-4-yl}-piperidine-1-carboxylic acid (4-pyrrolidin-1-yl-phenyl)-amide]: 9.30.
Next, `CN1CCN(CCCOc2ccc3c(C4CCN(C(=O)Nc5ccc(N6CCCC6)cc5)CC4)ncnc3c2)CC1` [Example 158, 4-{7-[3-(4-Methyl-piperazin-1-yl)-propoxy]-quinazolin-4-yl}-piperidine-1-carboxylic acid (4-pyrrolidin-1-yl-phenyl)-amide]: 8.10.
Next, `CN1CCN(c2ccc3c(C4CCN(C(=O)Nc5ccc(N6CCCC6)cc5)CC4)ncnc3c2)CC1` [Example 159, 4-[7-(4-Methyl-piperazin-1-yl)-quinazolin-4-yl]-piperidine-1-carboxylic acid (4-pyrrolidin-1-yl-phenyl)-amide]: 8.15; `CN1CCN(c2ccc3c(C4CCN(C(=O)Nc5ccc(N6CCCC6)nc5)CC4)ncnc3c2)CC1` [Example 160, 4-[7-(4-Methyl-piperazin-1-yl)-quinazolin-4-yl]-piperidine-1-carboxylic acid (6-pyrrolidin-1-yl-pyridin-3-yl)-amide]: 7.85; `O=C(Nc1ccc(N2CCCC2)cc1)N1CCC(c2ncnc3cc(OCCCN4CCC[C@H]4CO)ccc23)CC1` [Example 161, (S)-4-{7-[3-(2-Hydroxymethyl-pyrrolidin-1-yl)-propoxy]-quinazolin-4-yl}-piperidine-1-carboxylic acid (4-pyrrolidin-1-yl-phenyl)-amide]: 9.00.
For `CC(=O)N1CCC[C@H]1COc1ccc2c(C3CCN(C(=O)Nc4ccc(N5CCCC5)cc4)CC3)ncnc2c1` [Example 162, (S)-4-[7-(1-Acetyl-pyrrolidin-2-ylmethoxy)-quinazolin-4-yl]-piperidine-1-carboxylic acid (4-pyrrolidin-1-yl-phenyl)-amide], the pIC50 was 7.49.
Next, `CC(=O)N1CCC(COc2ccc3c(C4CCN(C(=O)Nc5ccc(N6CCCC6)cc5)CC4)ncnc3c2)CC1` [Example 163, 4-[7-(1-Acetyl-piperidin-4-ylmethoxy)-quinazolin-4-yl]-piperidine-1-carboxylic acid (4-pyrrolidin-1-yl-phenyl)-amide]: 7.96.
As for `CS(=O)(=O)N1CCN(CCCOc2ccc3c(C4CCN(C(=O)Nc5ccc(N6CCCC6)cc5)CC4)ncnc3c2)CC1` [Example 164, 4-{7-[3-(4-Methanesulfonyl-piperazin-1-yl)-propoxy]-quinazolin-4-yl}-piperidine-1-carboxylic acid (4-pyrrolidin-1-yl-phenyl)-amide], the figure is 7.60; as for `CN(C)C(=O)N1CCN(CCCOc2ccc3c(C4CCN(C(=O)Nc5ccc(N6CCCC6)cc5)CC4)ncnc3c2)CC1` [Example 165, 4-(3-{4-[1-(4-Pyrrolidin-1-yl-phenylcarbamoyl)-piperidin-4-yl]-quinazolin-7-yloxy}-propyl)-piperazine-1-carboxylic acid dimethylamide], 7.82; as for `CC(=O)N1CCN(c2ccc3c(C4CCN(C(=O)Nc5ccc(N6CCCC6)cc5)CC4)ncnc3c2)CC1` [Example 166, 4-[7-(4-Acetyl-piperazin-1-yl)-quinazolin-4-yl]-piperidine-1-carboxylic acid (4-pyrrolidin-1-yl-phenyl)-amide], 8.05.
Regarding `CS(=O)(=O)N1CCN(c2ccc3c(C4CCN(C(=O)Nc5ccc(N6CCCC6)cc5)CC4)ncnc3c2)CC1` [Example 167, 4-[7-(4-Methanesulfonyl-piperazin-1-yl)-quinazolin-4-yl]-piperidine-1-carboxylic acid (4-pyrrolidin-1-yl-phenyl)-amide], the pIC50 is 7.36.
For the compound `O=C(Nc1ccc(N2CCCC2)cc1)N1CCC(c2ncnc3cc(OCCO)ccc23)CC1` [Example 169, 4-[7-(2-Hydroxy-ethoxy)-quinazolin-4-yl]-piperidine-1-carboxylic acid (4-pyrrolidin-1-yl-phenyl)-amide], the pIC50 is 7.49.
As for `CC(=O)N1CC(Oc2ccc3c(C4CCN(C(=O)Nc5ccc(N6CCCC6)cc5)CC4)ncnc3c2)C1` [Example 170, 4-[7-(1-Acetyl-azetidin-3-yloxy)-quinazolin-4-yl]-piperidine-1-carboxylic acid (4-pyrrolidin-1-yl-phenyl)-amide], the figure is 6.54; as for `CS(=O)(=O)N1CC(Oc2ccc3c(C4CCN(C(=O)Nc5ccc(N6CCCC6)cc5)CC4)ncnc3c2)C1` [Example 171, 4-[7-(1-Methanesulfonyl-azetidin-3-yloxy)-quinazolin-4-yl]-piperidine-1-carboxylic acid (4-pyrrolidin-1-yl-phenyl)-amide], 6.89.
As for `O=C(COc1ccc2c(C3CCN(C(=O)Nc4ccc(N5CCCC5)cc4)CC3)ncnc2c1)N1CCOCC1` [Example 172, 4-[7-(2-Morpholin-4-yl-2-oxo-ethoxy)-quinazolin-4-yl]-piperidine-1-carboxylic acid (4-pyrrolidin-1-yl-phenyl)-amide], the figure is 6.27; as for `O=C(Nc1ccc(N2CCCC2)cc1)N1CCC(c2ncnc3cc(N4CCC4)ccc23)CC1` [Example 173, 4-(7-Azetidin-1-yl-quinazolin-4-yl)-piperidine-1-carboxylic acid (4-pyrrolidin-1-yl-phenyl)-amide], 9.00.
Next, `O=C(Nc1ccc(N2CCCC2)cc1)N1CCC(c2ncnc3cc(Oc4cccnc4)ccc23)CC1` [Example 174, 4-[7-(Pyridin-3-yloxy)-quinazolin-4-yl]-piperidine-1-carboxylic acid (4-pyrrolidin-1-yl-phenyl)-amide]: 7.38.
As for `O=C(Nc1ccc(N2CCCC2)cc1)N1CCC(c2ncnc3cc(NCCO)ccc23)CC1` [Example 175, 4-[7-(2-Hydroxy-ethylamino)-quinazolin-4-yl]-piperidine-1-carboxylic acid (4-pyrrolidin-1-yl-phenyl)-amide], the pIC50 was 9.00.
As for `O=C(Nc1ccc(N2CCCC2)cc1)N1CCC(c2ncnc3cc(N4CCOC4=O)ccc23)CC1` [Example 176, 4-[7-(2-Oxo-oxazolidin-3-yl)-quinazolin-4-yl]-piperidine-1-carboxylic acid (4-pyrrolidin-1-yl-phenyl)-amide], the figure is 6.99.

What is called pIC50 is −log10 of the IC50, conventionally taken in molar units. A low value points to a high IC50.
